# Assay results from patent US7423015B1, “Antihelminthic drugs as a treatment for hyperproliferative diseases” (Board of Regents, The University of Texas System, priority 2001, dated 2008).
# Columns and labels:
# A549 lung cancer cells = experiment: Apoptotic cells by TdT-FACS analysis; assay type: cell-based, human
# Method: Approximately 10^4 cells were seeded on tissue culture plates 24 h before drug treatment or adenoviral infection. […] FIG. 4C—A549 lung cancer cells were examined for apoptotic cell death 48 h after FZ and Ad5p53 treatment alone or in combination. Percent apoptotic cells were measured by TdT-FACS analysis.
# For TdT FACS analysis control and treated cells were collected by trypsinization, washed in PBS, and fixed overnight in 70% ethanol. The next day, cells were rehydrated in PBS for 30 min, centrifuged, and resuspended in PBS. For DNA analysis, propidium iodide (PI) was added at 50 μg/ml, and the cells were incubated in the presence of RNase A (15 mg/ml for 30 min at 37° C.). To detect DNA strand breaks associated with apoptosis, cells were fixed in 1% formaldehyde for 15 min at 4° C., rinsed in PBS, and stored at 4° C. in ice-cold 70% ethanol. Before staining, the cells were washed in PBS, and 10^6 cells were resuspended in 50 ml of cacodylated buffer containing 100 μ/ml TdT enzyme and 0.5 nM biotin-16 dUTP for 30 min at 37° C. Cells were washed in PBS and resuspended in 100 ml of 4×SSC containing 2.5 mg/ml fluoresceinated avidin, 0.1% Triton X-100, and 5% dry fat milk and then incubated at room temperature for 30 min in the dark. […] Flow cytometry was carried out in a fluorescence-activated cell sorter (Epics Elite; Coulter, Inc., Hialeah, Fla.).
# [1] = system: tumor vascularity of H460 xenografts (CD31); experiment: Immunohistochemical analysis of CD31 in H460 tumors; assay type: in vivo, nu/nu mice; settings: H460 xenografts in nude mice
# Method: Subcutaneous H460 tumors established in nu/nu mice that were either not treated or treated with MZ were harvested and fixed in 4% buffered formalin, paraffin embedded, and cut as […] thick sections. Tissue sections were stained for CD31 expression using rat anti-mouse CD31 antibody (Pharmingen) as previously described with slight modifications. Briefly, following deparafinzation and rehydration, tissue sections were treated with 0.3% H2O2 in methanol for 30 min to block endogenous peroxidase activity and were subsequently incubated with normal rat serum for 30 min at room temperature. Following incubation, slides were treated with protease for 15 min followed with rat monoclonal anti-CD31 antibody (1:1000 dilution) for 60 minutes. After 30 min incubation with anti-rat secondary antibody (provided with ABC kit, Vector) CD31 in tissues was detected with DAB by enhancement with avidin-biotin reaction ABC kit. The slides were counterstained with hematoxylin and then mounted with Aqua-mount (Lerner Labs, Pittsburgh, Pa.). The number of vascular areas staining positive for CD31 were analyzed under bright-field microscopy. A total of at least five fields per specimen were analyzed. In all the staining procedures, appropriate negative controls were included. […]
# [2] = system: A549 metastatic lung colonies; experiment: Lung metastases in vivo after tail vein injection; design: species or system female nude mice
# Method: To establish lung metastases, female nude mice were injected intravenously via tail vein with 10^6 A549 tumor cells suspended in […] of sterile PBS. Six days later, mice were divided into two groups of 5 mice each and treated. Group 1 received no treatment and group 2 received the experimental MZ drug orally at 1 mg of drug (100 μl) twice a week for 3 weeks. After 3 weeks, animals were euthanized by CO2 inhalation. Lungs from each of the mice from the two groups were injected intra-tracheally with India ink and fixed in Feketes solution. The therapeutic effect of MZ treatment was determined by counting the number of metastatic tumors in each lung under a dissecting microscope without knowledge of the treatment groups. The experiments were performed three times and data analyzed and interpreted as statistically significant if the p value was <0.05 by the Mann-Whitney rank-sum test.
# Next, the inventors asked whether treatment with MZ would inhibit the growth of human metastatic lung cancer cells in vivo. About 300 metastatic colonies appeared on untreated mice 21 days after A549 cell injection into the tail vein (FIG. 6). This technique was reproducible as the totals blindly counted by two investigators differed by less than 10%. This experiment was performed three times with similar results. The oral administration of […] MZ reduced mean colony count to 80% of the mean value for controls (P<0.0001).
# [3] = system: human vascular endothelial cells (HUVEC); experiment: In vitro proliferation assay with MZ, cell count; assay type: cell-based; settings: 24 h treatment
# Method: Cells of the human non-small cell lung cancer (NSCLC) cell line A549, WI-38 normal fibroblast (American Type Culture Collection, Rockville, Md.) and H460 (a gift from Drs. Adi Gazdar and John Minna. University of Texas Southwestern Medical Center, Dallas) were seeded on culture plates (2×10^4 cells/well) in F12 and RPMI medium, respectively, supplemented with 10% heat-inactivated fetal calf serum and antibiotics. HUVEC were grown in medium supplemented with growth factor (Clonetics, San Diego). The cells were then exposed to MZ dissolved in dimethyl sulfoxide (DMSO) when grown to 40-50% confluence. Cell growth was monitored by counting the cells using a hemocytometer.
# Initially, the inventors examined the effect of MZ on proliferation of human lung cancer cell lines (H460 and A549) in vitro.
# VEGF = VEGF expression/secretion in H460 cell line; assay type: cell-based, human; settings: H460, treatment period 18 hours
# Method: FIG. 7. Percent Inhibition of VEGF Expression in H460 Cell Line After MZ Treatment. Treatment period was 18 hours; control (C); treatment (T).
# One of the most encouraging findings is that MZ inhibited the neovascularization in the human xenografts tested. […] The inventors have thus shown that MZ is a potent antiangiogeneic agent. It had no effect on endothelial cell growth, instead directly targeting tumor cells in vivo. MZ may be effective in the treatment of cancer and other angiogenesis-dependent diseases.
# [4] = system: H460 human non-small cell lung cancer xenograft; assay type: in vivo, athymic nu/nu mice
# Method: Mice that had received 3.5 Gy of total body irradiation 1 day before inoculation were given injections into the shoulder of 2×10^6 tumor cells. Mice were then given MZ oral suspension (100 mg Vermox chewable tablet, Janssen Pharmaceutica, NJ, suspended in 10 ml PBS by sonication for 30 sec) with indicated concentration every other day, starting the day after 3-5 mm tumor established. Five mice were used in each group. Control and treated mice were then monitored for tumor growth; the tumors were measured externally in cross-sectional diameter every 7 days. Tumor volumes were calculated as previously described. Experiments were repeated three times.
# The in vitro effect of MZ on proliferation of tumor cell lines prompted us to investigate its antitumor activity in an athymic nu/nu mouse model. Tumors were established by subcutaneous injection of H460 cells, a human non-small cell lung cancer (NSCLC) cell line ([…] cells/mouse) (FIG. 5B). […] Moreover, 10/10 animals inoculated with 1×10^6 cells developed tumors within 12 days. […] T0.2, T0.4 and T0.8 correspond to 0.2, 0.4 and 0.8 mg of MZ treatment groups (FIG. 5C). Animals with established tumors, 3-5 mm in diameter, received MZ every other day for 4 weeks, after which tumors were harvested, photographed, and weighed.
# [5] = system: neovascularization induced by A549 cells; experiment: Angiogenesis by tumor cells in vivo, dorsal air-sac method; design: species or system nude mouse; settings: MZ oral suspension 1 mg/mouse/day, day 5
# Method: In vivo angiogenesis was assayed by the dorsal air-sac method (Bouvet et al., 1998). Briefly, 1×10^7 cultured A549 cells were suspended in PBS and packed into round cellulose ester membrane chambers with a diameter of 14 mm (pore size, 0.45 μm; Millipore, Bedford, Mass.). The chambers were then implanted into a dorsal air sac of a nude mouse. After the chamber implantation mice were fed with MZ oral suspension (1 mg/mouse/day). Five mice were used in each group. The mice were killed on day 5, and the subcutaneous region overlying the chamber in each mouse was photographed. The experiment was repeated two times with identical results.
# In vivo angiogenesis was further assayed by the dorsal air-sac method (Tanaka et al., 1989). Subcutaneous neovascularization overlying a semipermeable membrane chamber containing […] cells. […] In order to exclude the possibility that the reduced vasculature was due to lack of viable tumor cells in the chamber, cells were prelabeled with fluorescent dye and injected into the chamber. After the blood vessels were photographed, the tumor cells on the membrane was examined under a fluorescence microscope.
Compound,apoptotic cells (A549 lung cancer cells; 48 h after combination treatment FZ and Ad5p53),apoptotic cells (A549 lung cancer cells; FZ treatment alone),"neovascularization (blood vessel density, CD31) [1]",size of tumor colonies (transverse diameter) ([2]; H and E staining of lung tissues),"mean colony count, % of the mean value for controls ([2]; oral administration of 1 mg/ml MZ, 21 days after A549 injection, P<0.0001)",effect on growth of HUVEC [3],VEGF secretion (VEGF),"tumor growth, dose escalation ([4]; 0.2, 0.4 and 0.8 mg of MZ every other day)",tumor weight versus control animals ([4]; MZ every other day for 4 weeks),"tumor growth ([4]; established tumors (3 mm), 1 mg of MZ orally every other day)","toxicity in treated mice ([4]; mouse, in vivo)",number and caliber of blood vessels [5]
"COC(=O)Nc1nc2ccc(Sc3ccccc3)cc2[nH]1 [Fenbendazole, methy 5-(phenylthio)-2-benzimidazole-2-carbamate]",30%,11%,–,–,–,–,–,–,–,–,–,–
"COC(=O)Nc1nc2ccc(C(=O)c3ccccc3)cc2[nH]1 [Mebendazole, Methyl 5-benzoylbenzimidazole-2-carbamate]",–,–,profoundly reduced,significantly reduced,80%,no effect,marked down-regulation,suppressed the growth of the tumors in a dose-dependent manner,marked difference,profoundly inhibit tumor growth,no signs of toxicity,significantly reduced
